Assay results reported in patent US8648066B2 (Exelixis, Inc., priority 2009, dated 2014).
pIC50: −log10 of the molar value.

Target: mTOR/GbL/Raptor (mTORC1) (Homo sapiens, UniProt P42345)
Assay: mTOR/GbL/Raptor (mTORC1) ELISA assay
Format: biochemical
Details: phosphorylation of 4E-BP1; 0.2 nM mTORC1, 10 μM ATP; read-out: IC50 in this assay (mTORC1 ELISA)
In short: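 ELISA read-out: phospho-4E-BP1 captured on Ni-chelate plates and detected with anti-phospho antibody plus HRP-anti-IgG luminescence. The kinase step ran 120 min at ambient temperature with 0.2 nM human mTORC1, 10 µM ATP, 50 nM His-4E-BP1, 10 mM MnCl2, pH 7.2 HEPES.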

Question: With `CN(C)Cc1nc2c(c(N3CCOc4ccc(-c5cnc(Cl)c(NS(C)(=O)=O)c5)cc4C3)n1)CC(C)(C)CC2` [Example 616, N-[2-chloro-5-(4-{2-[(dimethylamino)methyl]-6,6-dimethyl-5,6,7,8-tetrahydroquinazolin-4-yl}-2,3,4,5-tetrahydro-1,4-benzoxazepin-7-yl)puyridin-3-yl]methanesulfonamide] as the molecule, how does the pIC50 read?
Answer: 6.60 to 7.30

Question: With `CCNc1nc2ccc(-c3ccc4c(c3)CN(c3cc(C)nc5cc(OC)ccc35)CCO4)cc2[nH]1` [Example 247, N-ethyl-6-{4-[2-methyl-7-(methyloxy)quinolin-4-yl]-2,3,4,5-tetrahydro-1,4-benzoxazepin-7-yl}-1H-benzimidazol-2-amine] as the molecule, how does the pIC50 read?
Answer: 6.00 to 6.60

Question: How did the pIC50 turn out when `CC1(C)CCc2ncnc(N3CCOc4ccc(-c5cnc(N)c(S(=O)(=O)NC6CCNCC6)c5)cc4C3)c2C1` [Example 398] was run?
Answer: 6.60 to 7.30

Question: How did the pIC50 turn out when `Cc1nc2ccc(-c3ccc4c(c3)CN(c3ncnc5c3CCC(C)C5)CCO4)cc2[nH]1` (centres unmarked) [Example 63, 7-(2-methyl-1H-benzimidazol-6-yl)-4-(7-methyl-5,6,7,8-tetrahydroquinazolin-4-yl)-2,3,4,5-tetrahydro-1,4-benzoxazepine] was run?
Answer: 6.60 to 7.30

Question: How did the pIC50 turn out when `CC1(C)CCc2ncnc(N3CCOc4ccc(-c5cnc(N)c(S(=O)(=O)N6CC[C@@H](O)C6)c5)cc4C3)c2C1` [Example 305, (3R)-1-({2-amino-5-[4-(6,6-dimethyl-5,6,7,8-tetrahydroquinazolin-4-yl)-2,3,4,5-tetrahydro-1,4-benzoxazepin-7-yl]pyridin-3-yl}sulfonyl)pyrrolidin-3-ol] was run?
Answer: 7.30 to 8.00

Question: With `Cc1nc2ccc(-c3ccc4c(c3)CN(c3cc(-c5ccccc5)nc5ccccc35)CCO4)cc2[nH]1` [Example 100, 7-(2-methyl-1H-benzimidazol-6-yl)-4-(2-phenylquinolin-4-yl)-2,3,4,5-tetrahydro-1,4-benzoxazepine] as the molecule, how does the pIC50 read?
Answer: 6.00 to 6.60

Question: With `CC1(C)CCc2ncnc(N3CCOc4ccc(-c5cnc6nc[nH]c6c5)cc4C3)c2C1` [Example 221, 4-(6,6-dimethyl-5,6,7,8-tetrahydroquinazolin-4-yl)-7-(1H-imidazo[4,5-b]pyridin-6-yl)-2,3,4,5-tetrahydro-1,4-benzoxazepine] as the molecule, how does the pIC50 read?
Answer: ≥ 8.00

Question: `CC1(C)CCc2ncnc(N3CCOc4ccc(-c5cnc(N)c(S(=O)(=O)NC[C@H]6CCCNC6)c5)cc4C3)c2C1` [Example 389, 2-amino-5-[4-(6,6-dimethyl-5,6,7,8-tetrahydroquinazolin-4-yl)-2,3,4,5-tetrahydro-1,4-benzoxazepin-7-yl]-N-[(3S)-piperidin-3-ylmethyl]pyridine-3-sulfonamide] was tested. Which pIC50 did it give?
Answer: 7.30 to 8.00

Question: How did the pIC50 turn out when `COc1ccc2c(N3CCOc4ccc(-c5cnc6[nH]cnc6c5)cc4C3)nc(CN(C)C)nc2c1` [Example 691, 1-{4-[7-(3H-imidazo[4,5-b]pyridin-6-yl)-2,3-dihydro-1,4-benzoxazepin-4(5H)-yl]-7-(methyloxy)quinazolin-2-yl}-N,N-dimethylmethanamine] was run?
Answer: 5.70 to 6.00

Question: With `CCNc1ncnc(N2CCOc3ccc(-c4cnc5nc(C)[nH]c5c4)cc3C2)c1C` [Example 639, N-ethyl-5-methyl-6-[7-(2-methyl-1H-imidazo[4,5-b]pyridin-6-yl)-2,3-dihydro-1,4-benzoxazepin-4(5H)-yl]pyrimidin-4-amine] as the molecule, how does the pIC50 read?
Answer: 6.00 to 6.60

Question: `CN(C)C(=O)c1cc(-c2ccc3c(c2)CN(c2ncnc4c2CC(C)(C)CC4)CCO3)cnc1N` [Example 379, 2-amino-5-[4-(6,6-dimethyl-5,6,7,8-tetrahydroquinazolin-4-yl)-2,3,4,5-tetrahydro-1,4-benzoxazepin-7-yl]-N,N-dimethylpyridine-3-carboxamide] was tested. Which pIC50 did it give?
Answer: 6.60 to 7.30

Question: `COC(=O)Nc1nc2ccc(-c3ccc4c(c3)CN(c3ncnc5ccccc35)CCO4)cc2[nH]1` [Example 109, methyl [6-(4-quinazolin-4-yl-2,3,4,5-tetrahydro-1,4-benzoxazepin-7-yl)-1H-benzimidazol-2-yl]carbamate] was tested. Which pIC50 did it give?
Answer: 6.00 to 6.60

Question: With `c1cc(N2CCOc3ccc(-c4cnc5nc[nH]c5c4)cc3C2)ncn1` [Example 543, 7-(1H-imidazo[4,5-b]pyridin-6-yl)-4-pyrimidin-4-yl-2,3,4,5-tetrahydro-1,4-benzoxazepine] as the molecule, how does the pIC50 read?
Answer: 5.70 to 6.00

Question: `CC1(C)CCc2ncnc(N3CCOc4ccc(-c5cnc(N)c(S(=O)(=O)N6CC7(CNC7)C6)c5)cc4C3)c2C1` [Example 432, 3-(2,6-diazaspiro[3.3]hept-2-ylsulfonyl)-5-[4-(6,6-dimethyl-5,6,7,8-tetrahydroquinazolin-4-yl)-2,3,4,5-tetrahydro-1,4-benzoxazepin-7-yl]pyridin-2-amine] was tested. Which pIC50 did it give?
Answer: 7.30 to 8.00

Question: With `CCOC(=O)Nc1nc2ncc(-c3ccc4c(c3)CN(c3ncnc5c3CC(C)(C)CC5)CCO4)cc2[nH]1` [Example 576, ethyl {6-[4-(6,6-dimethyl-5,6,7,8-tetrahydroquinazolin-4-yl)-2,3,4,5-tetrahydro-1,4-benzoxazepin-7-yl]-1H-imidazo[4,5-b]pyridin-2-yl}carbamate] as the molecule, how does the pIC50 read?
Answer: 7.30 to 8.00

Question: With `Cc1nc2ccc(-c3ccc4c(c3)CN(c3nc(CN(C)C)nc(C)c3CC3CC3)CCO4)cc2[nH]1` [Example 345, 1-{5-(cyclopropylmethyl)-4-methyl-6-[7-(2-methyl-1H-benzimidazo-6-yl)-2,3-dihydro-1,4-benzoxazepin-4(5H)-yl]pyrimidin-2-yl}-N,N-dimethylmethanamine] as the molecule, how does the pIC50 read?
Answer: 6.00 to 6.60

Question: `Cc1nc2ccc(-c3ccc4c(c3)CN(c3nc(CO)nc(C)c3C(C)C)CCO4)cc2[nH]1` [Example 687, {4-methyl-6-[7-(2-methyl-1H-benzimidazol-5-yl)-2,3-dihydro-1,4-benzoxazepin-4(5H)-yl]-5-(1-methylethyl)pyrimidin-2-yl}methanol] was tested. Which pIC50 did it give?
Answer: ≥ 8.00

Question: With `CC1=Cc2ncnc(N3CCOc4ccc(-c5cnc(N)c(S(=O)(=O)N6CC[C@@H](N)C6)c5)cc4C3)c2CC1(C)C` [Example 447, 3-{[(3R)-3-aminopyrrolidin-1-yl]sulfonyl}-5-[4-(6,6,7-trimethyl-5,6-dihydroquinazolin-4-yl)-2,3,4,5-tetrahydro-1,4-benzoxazepin-7-yl]pyridin-2-amine] as the molecule, how does the pIC50 read?
Answer: ≥ 8.00

Question: How did the pIC50 turn out when `c1ccc2c(N3CCOc4ccc(-c5ccc6[nH]ncc6c5)cc4C3)ccnc2c1` [Example 138, 7-(1H-indazol-5-yl)-4-quinolin-4-yl-2,3,4,5-tetrahydro-1,4-benzoxazepine] was run?
Answer: ≤ 5.70

Question: `COc1ccc2c(N3CCOc4ccc(-c5ccc6[nH]cnc6c5)cc4C3)nc(CN(C)C)nc2c1` [Example 658, 1-{4-[7-(1H-benzimidazol-5-yl)-2,3-dihydro-1,4-benzoxazepin-4(5H)-yl]-7-(methyloxy)quinazolin-2-yl}-N,N-dimethylmethanamine] was tested. Which pIC50 did it give?
Answer: ≤ 5.70

Question: How did the pIC50 turn out when `CCNc1nc2ccc(-c3ccc4c(c3)CN(c3ccnc5cc(OC)ccc35)CCO4)cc2[nH]1` [Example 291, N-ethyl-6-{4-[7-(methyloxy)quinolin-4-yl]-2,3,4,5-tetrahydro-1,4-benzoxazepin-7-yl}-1H-benzimidazol-2-amine] was run?
Answer: 7.30 to 8.00

Question: `Nc1nc2ncc(-c3ccc4c(c3)CN(c3ncnc5cc(Cl)c(Br)cc35)CCO4)cc2[nH]1` [Example 185, 6-[4-(6-bromo-7-chloroquinazolin-4-yl)-2,3,4,5-tetrahydro-1,4-benzoxazepin-7-yl]-1H-imidazo[4,5-b]pyridin-2-amine] was tested. Which pIC50 did it give?
Answer: 7.30 to 8.00

Question: `COc1cncc(-c2ccc3c(c2)CN(c2ncnc4c2CC(C)(C)CC4)CCO3)c1` [Example 476, 4-(6,6-dimethyl-5,6,7,8-tetrahydroquinazolin-4-yl)-7-[5-(methyloxy)pyridin-3-yl]-2,3,4,5-tetrahydro-1,4-benzoxazepine] was tested. Which pIC50 did it give?
Answer: 6.00 to 6.60
